Source: a compilation of properties of binary mixtures (doi:10.1016/j.molliq.2017.08.088)

Test: xn = mol fraction of the nth substance listed
Details: 101 kPa

CN(CCO)CCO + CCCC[n+]1ccn(C)c1.F[B-](F)(F)F
viscosity [mPa·s]
Details	x2 = 0.1002	x2 = 0.1974	x2 = 0.3	x2 = 0.4001	x2 = 0.4998	x2 = 0.6	x2 = 0.6997	x2 = 0.7998	x2 = 0.8999
293.15 K	89.3	82.9	78.9	75.2	73.6	74.2	79.1	87.9	–
303.15 K	49.9	46.2	–	42.4	42.4	43.8	47.5	53.1	–
313.15 K	30	28	26.4	26.1	26.4	27.7	30.4	34	41.2
323.15 K	18.9	–	17.2	17.2	17.7	–	20.6	23.3	27.8
333.15 K	12.75	–	11.84	12.03	12.44	13.35	14.8	–	19.8
